Experiments:
[1] = test system: melanoma tumor microenvironment (TME); assay: Multiplex immunofluorescence (mIF) immunophenotyping of melanoma biopsies; format: in vivo, human; settings: melanoma patient #5
Protocol: (§1) Formalin-fixed paraffin-embedded (FFPE) tissue sections were baked for 1 hour at 60° C. The slides were dewaxed and stained on a Leica BOND Rx stainer (Leica, Buffalo Grove, Ill.) using Leica Bond reagents for dewaxing (Dewax Solution), antigen retrieval and antibody stripping (Epitope Retrieval Solution 2), and rinsing after each step (Bond Wash Solution). A high stringency wash was performed after the secondary and tertiary applications using high-salt TBST solution (0.05 M Tris, 0.3M NaCl, and 0.1% Tween-20, pH 7.2-7.6). OPAL Polymer HRP Mouse plus Rabbit (PerkinElmer, Hopkington, Mass.) was used for all secondary applications.
Antigen retrieval and antibody stripping steps were performed at 100° C. with all other steps at ambient temperature. Endogenous peroxidase was blocked with 3% H2O2 for 8 minutes followed by protein blocking with TCT buffer (0.05 M Tris, 0.15 M NaCl, 0.25% Casein, 0.1% Tween 20, pH 7.6+/−0.1) for 30 minutes. The first primary antibody (position 1) was applied for 60 minutes followed by the secondary antibody application for 10 minutes and the application of the tertiary TSA-amplification reagent (PerkinElmer OPAL fluor) for 10 minutes. The primary and secondary antibodies were stripped with retrieval solution for 20 minutes before repeating the process with the second primary antibody (position 2) starting with a new application of 3% H2O2. The process was repeated until all 6 positions were completed; however, there was no stripping step after the 6th position. Slides were removed from the stainer and stained with Spectral DAPI (Perkin Elmer) for 5 minutes, rinsed for 5 minutes, and coverslipped with Prolong Gold Antifade reagent (Invitrogen/Life Technologies, Grand Island, N.Y.).
Slides were cured for 24 hours at room temperature, then representative images from each slide were acquired on PerkinElmer Vectra 3.0 Automated Imaging System. Images were spectrally unmixed using PerkinElmer inForm software and exported as multi-image TIFF's for analysis in HALO software (Indica Labs, Corrales, N. Mex.).
Cellular analysis of the images were then analyzed with HALO image analysis software (Indica Labs, Cooales, N. Mex.). After the cells were visualized based on nuclear recognition (DAPI stain), the software measured fluorescence intensity of the estimated cytoplasmic areas of each cell. A mean intensity threshold above background was used to determine positivity for each fluorochrome within the cytoplasm, thereby, defining cells as either positive or negative for each marker. The positive cell data was then used to define colocalized populations and to perform nearest neighbor spatial analysis.
Formalin-fixed paraffin-embedded melanoma samples were stained sequentially with a 6-component immunophenotyping antibody panel, including CD4, CD8, PD-1, PD-L1, macrophage cocktail (CD68+CD163), and FoxP3 (Tregs). DAPI was used as a nuclear counterstain. Antibodies were detected using HRP-catalyzed deposition of fluorescent tyramide substrates (Opal, Perkin-Elmer). Images were obtained using spectral imaging, autofluorescence subtraction and unmixing (Vectra 3.0, Perkin-Elmer), and analyzed using HALO™ image analysis software.
as §1, with “Tumor samples obtained from melanoma patients were formalin-fixed and” for “Formalin-fixed”, “(FFPE) according to known procedures. FFPE” for “(FFPE)”, “OPAL Polymer HRP Mouse plus Rabbit (PerkinElmer, Hopkington, Mass.) was used for all secondary applications.” left out

melanoma lesions = assay: CD8/Ki67/melanoma staining with nearest neighbor spatial analysis of biopsies; format: in vivo, human
Protocol: as §1, with “Tumor samples obtained from melanoma patients were formalin-fixed and” for “Formalin-fixed”, “(FFPE) according to known procedures. FFPE” for “(FFPE)”, “7.2-7.6).” for “7.2-7.6). OPAL Polymer HRP Mouse plus Rabbit (PerkinElmer, Hopkington, Mass.) was used for all secondary applications.”
Multiplex IHC staining was analyzed using HALO™ spatial analysis tools, and the entire tumor area of each specimen was scored. (See Tunstall, “Quantifying Immune Cell Distribution in the Tumor Microenvironment Using HALO™ Spatial Analysis Tools,” Application Note, July […], (Indica Labs), accessed Nov. 1, 2017, on https://thepathologist.com/fileadmin/issues/App_Notes/0016-010-halo-app-note.pdf). See also Sherry et al., Cancer Research 77(13) Supp: Abstract 2937 (2017).
Slides were sequentially stained with antibody panels after rounds of heat-induced epitope retrieval and detected by antibody-binding HRP-containing polymers in conjunction with fluorescent tyramide substrate (Opal, Perkin-Elmer). DAPI was used as a nuclear counterstain. Fluorochromes with spectral overlap were imaged using spectral deconvolution and autofluorescence-subtraction (Vectra 3.0, Perkin-Elmer). Whole-slide scans were imaged using the Aperio-FL System (Leica Biosystems) and transferred into Halo for quantitative digital image analysis. After the cells were visualized based on nuclear recognition (DAPI stain), the software measured fluorescence intensity of the estimated cytoplasmic areas of each cell. A mean intensity threshold above background was used to determine positivity for each fluorochrome within the cytoplasm, thereby, defining cells as either positive or negative for each marker. The positive cell data was then used to define colocalized populations and to perform nearest neighbor spatial analysis.
Staining for CD4, CD8, PD-1, PD-L1, CD163/CD68 (macrophage), FoxP3, Ki-67, and melanoma cells was accomplished using the antibodies listed in TABLE 3 and 4. OPAL Polymer HRP Mouse plus Rabbit (Perkin-Elmer, Hopkington, Mass.) was used for all secondary applications. […]
Representative distance measurements between CD8^+ T cells and their nearest melanoma cell neighbors are shown in FIG. 13 (Day 1), FIG. 14 (Week 4), and FIG. 15 (End of treatment). Whole slide scans were performed using a fluorescence slide scanner (Aperio-FL, 20× objective). […]

SMILES: NCCCCN(Cc1nc2ccccc2[nH]1)[C@H]1CCCc2cccnc21 [X4P-001]
- percentage of CD4 positive cells in the TME [1]: increased
- percentage of CD8 positive cells in the TME [1]: increased
- percentage of PD-1 positive cells in the TME [1]: increased
- percentage of PDL-1 positive cells in the TME [1]: increased
- percentage of Treg (FoxP3+) cells [1]: not altered
- percentage of macrophages (CD68/CD163+) ([1]; printed 24.1% vs. 25.4%, not altered): 25.4%
- number of unique neighbors (melanoma lesions; after 4 weeks of monotherapy, Day 1 3,826): 5,239
- average distance between CD8+ T cells and the nearest tumor cell (melanoma lesions; after 4 weeks of monotherapy, Day 1 baseline 95): 43 microns
- CD8+ T cell density (melanoma lesions; patient 5, entire tissue sample, after monotherapy): increased
- proliferating CD8+ T cell (Ki67+) density (melanoma lesions; patient 5, entire tissue sample, after monotherapy, stronger impact): increased

Reference: patent US20210349099A1, “CANCER BIOMARKERS AND METHODS OF USE THEREOF” (X4 Pharmaceuticals, Inc., priority 2017, published 2021)
